Laboratory results taken from publication PMC11148078, “Potent activity of polymyxin B is associated with long-lived super-stoichiometric accumulation mediated by weak-affinity binding to lipid A” (Nature Communications, 2024).
pKd: −log10 of the molar value. Bridge positions count the residues as written; N and C are the ends. Square brackets hold non-standard residues; d marks the D form. Peptide text beside a SMILES is read from it. * marks the point of attachment. X1 = CC[C@H](C)CCCCC(=O)*; Dab = NCC[C@H](N)C(=O)O

Columns and labels:
[1] = system: polymyxin B-resistant E. coli PmrA^G53E cells; test: Whole cell SPR, E. coli PmrA^G53E; assay type: binding
Procedure: Bacterial strains were grown in LB or LB with 0.2% arabinose and carbenicillin (50 μg/mL) to log phase (OD600 approximately 0.4–0.6), centrifuged for 10 min at 2500 × g (3500 rpm using a tabletop centrifuge), and re-suspended in PBS to a final OD600 of approximately 5. SPR on whole bacterial cells was performed and analyzed as described for OMVs on C1 chip, but with an additional carry-over wash prior to the capture. Regeneration of the chip after whole cell binding also required additional steps ([…] flow rate): (1) PBS supplemented with 32 mM MgCl2 for 120 s, (2) 2.5 M NaCl for 30 s, (3) 0.5% SDS (Desorb 1, Cytiva) for 60 s with carry over controls between.

[2] = system: resistant-OMVs; test: Three-state model fit to SPR titration, resistant-OMVs; assay type: binding, E. coli; conditions: resistant-OMV
Excerpt: To estimate binding constants, the three-state model was fit to binding curve titrations (Fig. 5A, B, and Table 2). Briefly, the SPR response curves of polymyxin B binding wt-OMVs (Fig. 5A) or resistant OMVs (Fig. 5B) were globally fit to Eqn. (1) by non-linear regression coupled to numerical integration of the associated ordinary differential equations (see Supplementary Information Section 2A), which define the time-dependent concentrations of each species.1 Response(t)=([PMBL]t+[nPMBL]t+2*[tPMB]t+m.[cPMB]t).MW.G.
Section 2A - Formulation of three-state model for fitting SPR data
The three-state model (Fig. 4) was formulated as a set of coupled ordinary differential equations (ODEs), with eight binding rate constants (k1-8) governing the rates of interchange of each species.
Forward rate constants k7 and k9 were eliminated from the equation set as formation of transient species tPMB and LL are irreversible.
Time at Injection 1 start = 0 s
Sample contact time = 30 s
Dissociation time interval = 35 s
Mass transport rate = kt = 46.5 1/s
Initial Species Concentrations
Coupled ODEs of Three-State Model d[L]/dt = -(k1.[PMB].[L] - k2.[PMBL])+2*k10.[LL] (S8) d[PMB]/dt = -(k1.[PMB].[L] - k2.[PMBL]) + kt’.([PMBi](t) –[PMB]) (S9) d[PMBL]/dt = (k1.[PMB]*[L] - k2.[PMBL])-(k3.[PMBL].[n] - k4.[nPMBL] ) (S10) d[n]/dt = -(k3.[PMBL].[n] - k4.[nPMBL] ) (S11) d[nPMBL]/dt = (k3.[PMBL].[n] - k4.[nPMBL])-2.(k5.[nPMBL].[nPMBL] - k6.[tPMB].[LL] ) (S12) d[tPMB]/dt = (k5.[nPMBL].[nPMBL] - k6.[tPMB].[LL] ) – k8.[tPMB] (S13) d[cPMB]/dt = 2*k8.[tPMB] (S14) d[LL]/dt = (k5.[nPMBL].[nPMBL] – k6.[tPMB].[LL]) – k10.[LL] (S15)
The initial concentrations of each species were as follows
[PMB]t=0 = [PMBL]t=0 = [nPMBL]t=0 = [tPMB]t=0 = [LL]t=0 = [cPMB]t=0 = 0 [L]t=0 = [n]t=0 = 1.56 x 10-4 (units, M) kt’ (units, m/s) was already defined in SI Section 1A. [PMBi](t) is the injected concentration profile and [PMB]t is the concentration profile at the sensing surface. [PMBi](t) follows a serial-doubling concentration of injected analyte, with a concentration profile defined by a serial step function, where each injection step represents a discrete concentration followed by a dissociation step without injected analyte and this is repeated for each concentration in the SCK dosing series.
Kintek Explorer V9.5 was used to build and fit the three-state model. This program employs its own numerical integrator9, which reports the change in concentration of each species over time.
The SPR responses for concentrations of each accumulating PMB-species estimated from Eqn (8 - 15) are summed over time in Eqn (1), repeated here.
Response(t) = ([PMBL]t+[nPMBL]t+2*[tPMB]t+m.[cPMB]t).MW.G. Eqn (1)
The concentration of [tPMB]t is multiplied by two to account for its additional mass, being composed of two PMB molecules. […]

[3] = system: lipid A / outer membrane; set-up: method as in PMID 6414364, PMID 10956216; conditions: ref [20],[21]; cited from earlier work

Row | Compound | SPR binding profile [1] | k3 ([2]; first two states, max 625 nM) [M⁻¹ s⁻¹] | k4 ([2]; first two states, max 625 nM) [s⁻¹] | pKd ([2]; fitted, first two states, max 625 nM, read-out: KD = k2/k1) | kt ([2]; mass transport rate) [ms^−1] | antibacterial activity and lipid A binding [3]
1 | CC[C@H](C)CCCCC(=O)N[C@@H](CCN)C(=O)N[C@H](C(=O)N[C@@H](CCN)C(=O)N[C@H]1CCNC(=O)[C@H]([C@@H](C)O)NC(=O)[C@H](CCN)NC(=O)[C@H](CCN)NC(=O)[C@H](CC(C)C)NC(=O)[C@@H](Cc2ccccc2)NC(=O)[C@H](CCN)NC1=O)[C@@H](C)O [Polymyxin B] (X1-[Dab]T[Dab][Dab][Dab][dF]L[Dab][Dab]T; lactam 4-C (inferred); N-terminus assumed) | same polymyxin B binding profiles were observed | 335 | 0.0085 | 6.57 | 44.6 | –
2 | CC(C)C[C@@H]1NC(=O)[C@@H](Cc2ccccc2)NC(=O)[C@H](CCN)NC(=O)[C@@H](NC(=O)[C@H](CCN)NC(=O)[C@@H](N)[C@@H](C)O)CCNC(=O)[C@H]([C@@H](C)O)NC(=O)[C@H](CCN)NC(=O)[C@H](CCN)NC1=O [PMBN] (H-T[Dab][Dab][Dab][dF]L[Dab][Dab]T; lactam 3-C) | – | – | – | – | – | do not possess antibacterial activity, nonetheless bind to lipid A and permeabilize the outer membrane
